Data set [1] in a line: Head-focused SPECT/CT of ^111In—AuNP or ^111In-LA-DOTA infused to the cisterna magna, 0-3 h. The data set is classed as in vivo, Sprague-Dawley rats. The arrangement: AUC0-3 h Striatum / AUC0-3 h Thalamus / AUC0-3 h Intracranial / AUC0-3 h Brain / AUC0-3 h Cervical spine / AUC0-3 h Nasal turbinates / AUC0-3 h Pharyngeal lymph vessel / AUC0-3 h Deep lymph nodes: concentration or dose not given beside the values. The settings on record: VEH (isotonic saline i.p.). As for the experimental part:
Cisterna magna cannulation was performed as previously described with minor modifications (Xavier et al. J Vis Exp e57378-e57378 (2018)). Rats were anesthetized with a mixture of ketamine (100 mg/kg) and dexmedetomidine (0.5 mg/kg), administered subcutaneously in a volume of 2 ml/kg. After verification of loss of response to toe pinch, animals were placed in a stereotaxic frame and the neck slightly flexed (30°). The atlanto-occipital membrane overlying the cisterna magna was surgically exposed and a 30 G short-bevelled dental needle connected to PE10 tubing was carefully inserted into the intrathecal space. The catheter was fixed to the dura with cyanoacrylate glue and dental cement.
For post-operative analgesia, rats that were imaged for 24 hours received 5 mg/kg carprofen (Rimadyl® vet, 50 mg/mL, Orion Pharma, Espoo, Finland) s.c. at the beginning of surgery. Temperature was monitored and normothermia was maintained with a heating pad. […] The total volume of 32 μL was infused over 20 minutes. Five minutes before the AuNP infusion started, rats received either hypertonic saline (1 M, 20 mL/kg i.p.) or isotonic saline (0.154 M, 20 mL/kg i.p.). In the MRI experiments, all rats received a hypertonic saline injection, and the infusion rate of Gd-labelled nanoparticles was the same, but the total infusion volume was 80 μL.
Radioactivity of the infused dose was measured with VIK-202 dose calibrator (Comecer, Joure, The Netherlands). The Vector4CT (MILabs, Utrecht, Netherlands) system was used for SPECT/CT imaging. SPECT images were acquired with a high energy ultra high resolution rat 1.8 mm pinhole collimator (HE-UHR-RM 1.8 mm ph). Acquired images were reconstructed using Similarity-Regulated Ordered Subsets […] (SROSEM) with a voxel size of 0.6 mm and 5 iterations. Both decays at the 111-In photopeaks (±20%) and background at 20% outside each photopeak window) were individually used for the reconstruction. Two highly accurate energy dependent system matrices for iterative image reconstruction (SROSEM' Vaissier, P. E. B., Beekman, F. J. & Goorden, M. C. Similarity-regulation of OS-EM for accelerated SPECT reconstruction. Physics in Medicine and Biology 61, 4300-4315 (2016)) were used to minimize artifacts in ^111In imaging with high local uptake and no background activity in surrounding structures. In each matrix the effects of energy dependent pinhole penetration (calculated using a ray tracer, Goorden et al. Physics in Medicine and Biology 61, 3712-3733 (2016)) and intrinsic detector resolution with depth of interaction (DOI) effects in the crystal were modelled. The DOI effect was calculated using GATE Monte Carlo simulations (Jan, S. et al. Physics in Medicine and Biology 49, 4543-4561 (2004)) that was stored in tables and used in the raytracer. Matrices were generated for 171 keV and 245 keV photons and were used during the reconstruction from projections of the corresponding energy peaks. The resulting SPECT images were then added and averaged to obtain the final ^111In image. Head and full-body CT images were acquired directly after the SPECT scans in the same imaging session. SPECT data were attenuation corrected, decay corrected to the half-life of ^111In, and corrected for injected activity, with each voxel representing the percentage of the injected dose per cm^3 (%ID/cm^3).
Head and full-body CT images from each imaging session were nonlinearly registered using Advanced Normalization Tools (ANTs) to the appropriate population-based CT template (described below). Regions of interest (ROIs) were then either drawn manually in on individual CT images, manually in the template space, or were computed automatically in the case of the delineation between CSF and brain described below. Manual ROIs were drawn using ITK-SNAP software. Spherical ROIs (Ø 1.4 mm) for striatum and thalamus were placed using the in-house MRI template as reference. […]

A short description of data set [2]: Stability of ^111In-LA-DOTA complex in CSF or brain homogenate (radio-TLC). It is filed as in vitro ADME, rat. The settings on record: CSF and BH, 37° C., over 48 hours. As for the experimental part: To obtain CSF and brain homogenate for assessing AuNP stability, rats were anesthetized with subcutaneous ketamine (100 mg/kg) and dexmedetomidine (0.5 mg/kg) and fixed to a stereotaxic frame after verification of loss of response to painful stimuli. The cisterna magna was exposed and CSF was carefully drawn using a syringe and a 30 G needle. The rats were euthanized, the brains were quickly dissected and cut in four quarters. Each quarter was mixed in 5 mL phosphate-buffered saline (PBS) using a homogenizer. Both the CSF and brain homogenates were stored at —80° C. To allow UV-VIS characterization at low radioactivity level, radiolabeled AuNPs were mixed with non-radiolabeled, PEG-coated AuNPs from the same batch (see section 2.2). The gold concentration was the same in both AuNPs samples (0.373 mg/mL). […]
Free ^111In-LA-DOTA: The following mixtures were prepared and analyzed: 1) CSF (30 μL)+^111In-LA-DOTA complex solution (30 μL), 2) Brain homogenate (15 μL)+PBS (15 μL)+^111In-LA-DOTA complex solution (30 μL). […] The mixtures were incubated at 37° C. and samples were analyzed by radio-TLC at 0, 4, 24, and 48 hours. […]

Entries after “also recorded” stand apart in the source; their conditions may differ. Marks after values point to notes of the source that are not given here.

`O=C(O)CN1CCN(CC(=O)O)CCN(CC(=O)NCCNC(=O)CCCCC2CCSS2)CCN(CC(=O)O)CC1` (stereo not drawn) [^111In-LA-DOTA, 2,2′,2″-(10-(2-((2-(5-(1,2-dithiolan-3-yl)pentanamido)ethyl)amino)-2-oxoethyl)-1,4,7,10-tetraazacyclododecane-1,4,7-triyl)triacetic acid, metal not drawn]: in data set [1], the “AUC0-3 h Brain” value was 84.2 ± 13.6^c % ID · h, the “AUC0-3 h CSF” value is listed as 40.2 ± 9.4 % ID · h, the “AUC0-3 h Cervical spine” value worked out at 126.5 ± 30.32 % ID/cm^3 · h and the “AUC0-3 h Deep lymph nodes” value is 0.1 ± 0.1^f % ID/cm^3 · h. In addition, in data set [1], the “AUC0-3 h Nasal turbinates” value is recorded as 2.4 ± 1.4^b % ID/cm^3 · h, the “AUC0-3 h Pharyngeal lymph vessel” value is recorded as 0.5 ± 0.1^d % ID/cm^3 · h, the “AUC0-3 h Striatum” value is 4.5 ± 1.5 % ID/cm^3 · h and the “AUC0-3 h Thalamus” value is 7.5 ± 4.2^k % ID/cm^3 · h. Further, in data set [1], the “Peak tracer mass Brain” value is on record as 39.6 ± 4.3 % ID, the “Peak tracer mass CSF” value was 27.3 ± 3.5 % ID, the “Peak tracer mass Intracranial” value worked out at 65.4 ± 6.0 % ID and the “Peak tracer mass Striatum” value was found to be 4.3 ± 1.6 % ID/cm^3. In data set [1], the “Peak tracer mass Thalamus” value is 8.3 ± 3.1^n % ID/cm^3, the “Residual after 3 h Brain” value is given as 20.6 ± 5.0^g % ID, the “Residual after 3 h CSF” value came out at 4.9 ± 1.3 % ID and the “Residual after 3 h Intracranial” value turned out to be 25.5 ± 6.2 % ID. For the same compound, the “AUC0-3 h Intracranial” value in data set [1] (intracisternal infusion, rats) is 124.4 ± 22.5 % ID · h. Besides, the “stability of the chelate (release of ^111In from the chelator)” value in data set [2] was “stable; also recorded: did not result in appreciable destabilization”.

The values above are taken from patent publication US20220280423A1, “GLYMPHATIC DELIVERY BY MANIPULATING PLASMA OSMOLARITY” (University of Rochester, priority 2018, published 2022).
